Laboratory results from BindingDB's records for patent US20240199535 (Immunic, 2024).

Biological target: Dihydroorotate dehydrogenase (quinone), mitochondrial (Homo sapiens, UniProt Q02127)
Sequence (Q02127 whole entry): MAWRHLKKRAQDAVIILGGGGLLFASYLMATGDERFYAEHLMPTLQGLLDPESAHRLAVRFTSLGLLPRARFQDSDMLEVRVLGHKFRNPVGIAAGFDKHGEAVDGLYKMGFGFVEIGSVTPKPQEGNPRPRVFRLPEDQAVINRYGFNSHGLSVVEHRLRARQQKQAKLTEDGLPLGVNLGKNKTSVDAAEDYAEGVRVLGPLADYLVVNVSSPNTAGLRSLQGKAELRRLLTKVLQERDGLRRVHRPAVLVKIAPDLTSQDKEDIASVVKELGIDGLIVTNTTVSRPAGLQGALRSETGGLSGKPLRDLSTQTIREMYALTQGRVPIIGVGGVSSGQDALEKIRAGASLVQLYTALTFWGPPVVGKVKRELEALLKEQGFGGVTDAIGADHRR
Method: Briefly, the hDHODH concentration was adjusted in a way that an average slope of approximately 0.2 AU/min served as the positive control (e.g. without inhibitor). The standard assay mixture contained 60 μM 2,6-dichloroindophenol, 50 μM decylubiquinone and 100 μM dihydroorotate. The hDHODH enzyme with or without at least six different concentrations of the compounds was added and measurements were performed in 50 mM TrisHCl, 150 mM KCl and 0.1% Triton X-100 at pH 8.0 and at 30° C. The reaction was started by adding dihydroorotate and measuring the absorption at 600 nm for 2 min. For the determination of the IC50 values, each data point was recorded in triplicate. For the determination of the inhibitory constant Ki, the KM values for DHO and decylubichinon were determined. Afterwards, the compounds were diluted in a dilution series depending on their IC50 values in DMSO.

SMILES	Ki [nM]
O=C(O)C1=C(C(=O)Nc2ccc(-c3cccc(OC(F)F)c3)cc2F)CCC1 [US20240199535, Example 5]	1820
O=C(Nc1c(F)c(F)c(-c2cccc(OC(F)(F)F)c2)c(F)c1F)c1ccsc1C(=O)O [US20240199535, Example 4]	3.7
